Source: paper PMC7770833, “Design, Synthesis, and Biological Evaluation of a Series of Oxazolone Carboxamides as a Novel Class of Acid Ceramidase Inhibitors” (Journal of Medicinal Chemistry, 2020)

Tested on: human neuroblastoma SH-SY5Y cells
Assay: Sphingolipid levels in SH-SY5Y cells (LC/MS)
Format: cell-based
Description: SH-SY5Y cells were purchased from Sigma Aldrich (Italy) and cultured in DMEM containing 10% FBS at 37 °C and 5% CO2. Drugs were dissolved in DMSO (10 mM) and diluted in cell culture medium with reduced serum (1%) for cell treatments.
Lipid extraction and SL measurements were performed as previously described.[59],[61],[75] Lipids were extracted with a CHCl3/MeOH mixture (2:1, 3 mL) spike with internal standards. The organic phase was collected, dried under N2, and dissolved in CHCl3/MeOH (1:3) for LC/MS analyses. Ceramides and sphingosine were analyzed by LC/MS/MS, using a Waters Acquity UPLC coupled to a Waters Xevo triple quadrupole mass spectrometer (TQMS) and interfaced with an ESI ion source. Separation was performed on a Waters Acquity BEH C18 1.7 μm column (2.1 × 50 mm) at 60 °C. A linear gradient of 0.1% HCOOH in CH3CN/i-PrOH (20:80) as solvent B in 0.1% HCOOH in CH3CN/H2O (20:80) as solvent A and was applied at a flow rate of 0.4 mL/min. The detection of SLs was performed in positive ion mode. Capillary voltage was 3.5 kV and cone voltage was 25 V. The source temperature and desolvation temperatures were set at 120 and 600 °C, respectively. Desolvation gas and cone gas (N2) flows were 800 and 20 L/h, respectively. Ceramides were identified by comparison of their LC retention times and MS/MS fragmentation patterns with those of authentic standards (Avanti Polar Lipids). Multiple reaction monitoring (MRM) ion chromatograms were used to quantify dihydroceramide (Cer(d18:0/16:0), Rt = 4.6 min, m/z: 540.5 > 522.5), palmitoyl ceramide (Cer(d18:1/16:0), Rt = 4.5 min, m/z: 520.3 > 264.2) sphingosine (So(d18:1), Rt = 2.6 min, m/z: 300.2 > 282.2), sphingomyelin (SM(d18:1/16:0), Rt = 4.2 min, m/z: 703.2 > 184.1) and hexosylceramide (HexCer (d18:1/16:0), 4.3 min, m/z: 682.2 > 264.2). Detection and analysis were controlled by Waters MassLynx software version 4.1. Calibration curves were prepared for every experiment.

SMILES: CCCCCNC(=O)n1cc(-c2ccc(F)cc2C2CCN(C)CC2)oc1=O [Compound 32b, 5-[4-Fluoro-2-(1-methyl-4-piperidyl)phenyl]-2-oxo-N-pentyl-oxazole-3-carboxamide]
- Cer (d18:0/16:0) level (10 μM, time course up to 6 h): increased
- Cer (d18:1/16:0) level (10 μM, time course up to 6 h): increased
- HexCer (d18:1/16:0) level (10 μM, time course up to 6 h): No major variations
- SM (d18:1/16:0) level (10 μM, time course up to 6 h): No major variations
- So levels (10 μM, time course up to 6 h): decreased
- Cer (d18:0/16:0) level (3 h incubation, 1-10 μM): accumulation
- Cer (d18:1/16:0) level (3 h incubation, 1-10 μM): accumulation
- HexCer (d18:1/16:0) level (3 h incubation, 1-10 μM): no major variations
- SM (d18:1/16:0) level (3 h incubation, 1-10 μM): no major variations
- So levels (3 h incubation, 1-10 μM): decrease
